Consider 1 compound from patent publication US20210290742A1, “METHODS OF USING LYSINE DEACETYLASE (KDAC) INHIBITION TO GENERATE ANTIGEN SPECIFIC MEMORY T CELL RESPONSES FOR DURABLE IMMUNOTHERAPY” (ARIZONA BOARD OF REGENTS ON BEHALF OF THE UNIVERSITY OF …, priority 2018, published 2021).

The subject of one assay is Human Jurkat T cells. As to the kind of experiment: Early CD69 expression on stimulated Jurkat T cells. Format: cell-based. The settings on record: TSA 10 ng/ml, anti-CD3/anti-CD28 stimulation, 2 and 4 hours. As to the method:
Human Jurkat T Cells were incubated with anti-CD3/anti-0028 (Ag) in the presence or absence of TSA 10 ng/ml) or anti-CD45/CD28 (unstimulated) antibody mated chamber slides for indicated time points. The cells were harvested, counted and stained for CD69. […] FIGS. 10C and 10D show the percentage (% CD69) and their relative Mean Fluorescence intensity (MFI) at 2 and 4 hours, respectively (h: hour).
(§1) Examples 9-10 were obtained from human Jurkat cell line. Jurkat T cells were […]

Assay [1] concerns antigen stimulated CD8+ T cells. As to the kind of experiment: Clonal expansion of antigen stimulated CD8+ T cells. Format: cell-based, murine. The note with it: TSA 2.5 ng/ml.
Assay [2] has as its system naïve CD8+ (OT-I) T cells. As to the kind of experiment: Antigen-induced early activation of naïve CD8+ (OT-I) T cells, CD69/CD62L surface staining by flow cytometry. Format: cell-based, murine. The settings on record: pre-treatment with TSA 2.5 ng/ml, antigen stimulation 4 hours, vs antigen alone. The procedure: KDAC inhibition with TSA at 2.5 ng/ml differentially regulates early activation phenotype of antigen stimulated CD8+ T cells. […] Naïve cells (control) are presented in shaded histograms, and antigen stimulated cells (Ag) are shown by the solid line histogram. […] The results shown are representative of five independent experiments with identical outcomes. (N: Naîve; A; Ag; A+T: Ag+TSA).
(§2) Examples 1-0 were obtained from a murine transgenic model, from which in vitro stimulated naïve cells were isolated from TCR transgenic mice (OT-1/Rag -/-). […]
Cognate antigen presented by MHC Class 1 to irate CD8+ T cells in the context of co-stimulation and cytokine leads to rapid (2-4 hours) increases in CD69 expression and decreases in CD62L, which indicate antigen induced early T cell activation response. To characterize early activation of T cells, naïve CD8+(OT-I) T cells were reacted with antigen (Ag; latex microspheres bearing H-2Kb-Fc+/8 amoni acid cognate peptide/rmB7-1) in vitro for 4 hours, cell surface was stained for […] and CD69 expression and evaluated by flow cytometry. […]

Assay [3] concerns antigen stimulated CD8+ T cells. As to the kind of experiment: CD8 expression asymmetry in antigen stimulated CD8+ T cells at 24 h. The settings on record: TSA pre-treated, within 24 h, vs Ag alone. It is filed as cell-based, murine. As to the method:
Results shown are representative of three independent experiments with identical outcomes. (h: hour; hi high; lo; low).
(§3) Examples 1-0 were obtained from a murine transgenic model, from which in vitro stimulated naïve cells were isolated from TCR transgenic mice (OT-1/Rag -/-). In brief, the CD8+ T cells obtained from nave TCR transgenic mice (OT-1/Rag -/-) mice were stimulated in vitro with latex microspheres on which major histocompatibility complex (MHC) Class I (H-2Kb) dimers bearing 10 nM of cognate peptide (Ag) were immobilized, along with 1 μg/ml of recombinant murine […] (co-stimulation) and 2 ng/ml of rmIL-12 (cytokine) (FIG. 1).
Accumulating evidence implicates a deterministic role for cellular asymmetry in antigen induced CD8+ T cells division and functional maturation. The KDACi-mediated reduced TCR signaling and mTOR activity were examined to determine their effect on the induction of inherent asymmetry produced in antigen stimulated CD8+ T cells (FIGS. 4A-4D). […] This could be attributed to the lower threshold of early activation/TCR signaling cues available to the TSA primed CD8+ T cells.

For assay [4], the system named is IL-2 gene expression in Human Jurkat cells. As to the kind of experiment: qPCR analysis of antigen-induced IL-2 gene expression in Jurkat T cells. It is filed as cell-based. The note with it: anti-CD3/anti-CD28 stimulated Jurkat T cells, 30 min to 16 h, presence vs absence of TSA. As to the method:
IL-2 gene expression is shown in FIG. 11 in stimulated Jurkat T cells in presence or absence of ISA. Cells were incubated on the anti-CD3/anti-CD28 (stimulatory) or anti-CD45 (non-stimulatory) antibody coated chamber slides for 30 min to 16 h, then the total RNA was extracted and performed qPCR analysis of 1L-2 expression. Data shown are the mean fold change of ±SD of three independent experiments. Error bars represent standard deviations. *, statistically significant (p<0.05) and **, p=0.0071 with respect to the values obtained in the presence of TSA. ns, non-significant. (h: hour).
as §1
Background: Quantitative PCR measures a nucleic acid by following its amplification.

For the next assay, the system named is mTORC1. As to the kind of experiment: mTORC1 activity by intracellular flow cytometry of pS6K in antigen stimulated CD8+ T cells. It is filed as cell-based, murine. The note with it: TSA pretreatment, 4 and 8 hours post-antigen stimulation of naïve OT-1 T cells. As to the method:
(§4) Lysates from naïve OT-1 cells served as a control (N). Cell lysates were prepared at 0, 15, 60, or 120 minutes post-stimulation and analyzed for p-LcK^Tyr394, p-Zap70, p-PKCe and β-tubulin levels by Western blot analysis. […] The normalized values at indicated time-points are plotted. […] Naïve (shaded histograms, antigen alone (solid line histogram) and antigen plus TSA (histogram indicated by arrow). Error bars are the standard error of mean (SEM) values obtained from three independent experiments. Naïve OT-1 T cells were pre-treated with TSA for 30 minutes and then stimulated with Ag (microspheres bearing H-2K^b/cognate 8 amino acid peptide/B7-1), (h: hour: N: Naïve; A: Ag; A+T: Ag+TSA).
as §2
(§5) Western blot analysis was conducted to compare the level of phosphorylation of early TCR signaling proteins, Lck, Zap70, and PKCθ, by TSA pre-treatment of antigen stimulated CD8+ T cells. […] Since, the energy sensitive kinase mTORC1 serves as an integrative node for extracellular signals that initiate naïve CD8+ T cells activation, the mTORC1 activity was assessed by measuring the phosphorylation state of the mTORC1 target ribosomal […] (p-S6) by intracellular flow cytometry (FIG. 3D).
For orientation: In flow cytometry, cells or beads pass a laser one at a time.

Assay [5] has as its system antigen stimulated CD8 High and CD8 Low T cells. Description: mTORC1 activity, cell cycle and proliferation of FACS sorted CD8 High and CD8 Low cells at 48 h. The note with it: total 48 hours. It is filed as cell-based, murine. As to the method:
Gating strategies and growth profiles of antigen alone (Ag) or TSA induced antigen (Ag+TSA) at 48 hours are shown for CD8 High and CD8 Low populations. Ag and Ag+TSA CD8+ T-cell cultures were FACS sorted on the basis of CD8α expression. […] Solid line histograms represent Ag or Ag+TSA CD8 or High cells and shaded histograms are unstimulated naïve CD8+ T cells. […] Solid line histograms represent Ag or Ag+TSA CD8 Low or High cells and shaded histograms are unstimulated naïve CD8+ T cells. […] Error bars are the standard error of mean (SEM) values obtained from three independent experiments. (h: hour; hi: high; lo: low).
as §3
To determine the implications of the TSA-mediated tuned percentage of CD8 expression on the growth profile, of these cells, the 24 hours Ag and Ag # TSA CD8+ T cells were separated by FACS sorting on the basis of their CD8 expression (FIGS. 5A-5H).

The test system of assay [6] is TCR proximal signaling (Lck, Zap70, PKCθ phosphorylation). As to the kind of experiment: Western blot of early TCR signaling proteins (p-Lck, p-Zap70, p-PKCθ) in antigen stimulated CD8+ T cells. Format: cell-based, murine. The note with it: TSA pre-treatment 30 minutes 2.5 ng/ml, vs Ag alone. As to the method:
as §4, §3, §5

Take `CC(/C=C/C(=O)NO)=C\[C@@H](C)C(=O)c1ccc(N(C)C)cc1` [TSA, Trichostatin A]: the “early antigen stimulation (CD69 expression)” value with Human Jurkat T cells is on record as “dampens early antigen stimulation of Jurkat T cells”. In assay [1], the clonal expansion entry is recorded as “reduces clonal expansion”. Besides, in assay [2], the CD62L shedding result is listed as “increases CD62L shedding” and the CD69 expression result was “reduces antigen dose dependent CD69 expression”. For the same compound, the “proportion of cells with increased expression of CD8” value in assay [3] is “lesser proportion of cells to have increased expression of CD8 as compared to Ag alone”. In addition, the IL-2 gene expression result in assay [4] is recorded as “reduces IL-2 gene expression”. The “mTORC1 activity (S6Kp)” value with mTORC1 is “dampened mTORC1 activity”. The “mTORC1 activity (S6Kp) in CD8 Hi cells” value in assay [5] (Ag+TSA CD8 Hi vs Ag alone CD8 Hi) is “higher”. In assay [5] (Ag+TSA CD8 High vs Ag CD8 Hi), the “cell cycle phase of CD8 High cells” value was “enter S phase, comparable to the Ag CD8 Hi cells”. In addition, in assay [5] (Ag+TSA CD8 Low vs Ag CD8 Low), the “cell cycle phase of CD8 Low cells” value was “retained in the G0-G1 phase of cell cycle and do not enter the S phase”; the “mTORC1 activity (S6Kp) in CD8 Low cells” value is recorded as “reduced”. Moreover, the “phosphorylation of Zap70” value in assay [6] (60 minutes) was “reduction”. Also, in assay [6] (120 minutes), the “phosphorylation of PKCθ” value is “reduction”. For the same compound, the “phosphorylation of Lck” value in assay [6] (by 15 minutes) was “dampened”.
